This series in a line: solvent given as SMILES.

For the setting “in CO”, `Cc1cc(C)c(B(c2cc(-c3ccc(N(C)C)cc3)sc2-c2sc(-c3ccc(N(C)C)cc3)cc2P(=O)(c2ccccc2)c2ccccc2)c2c(C)cc(C)cc2C)c(C)c1` gave an emission maximum of 645 nm.
As to `c1ccc(-n2c(-c3ccc(-c4ccc(-c5ccc(-c6nc7c8ccccc8c8ccccc8c7n6-c6ccccc6)cc5)cc4)cc3)nc3ccccc32)cc1`, the emission maximum is, setting by setting: (in C1CCOC1) 435 nm; (in C1COCCO1) 414 nm; (in CC#N) 447 nm; (in CCCCCC) 404 nm; (in CCCCOCCCC) 411 nm; (in CCN(CC)CC) 409 nm. Moreover, the emission maximum is 425 nm (in CCOC(C)=O); 427 nm (in CCOCC); 447 nm (in CN(C)C=O); 413 nm (in Cc1ccccc1); 427 nm (in ClC(Cl)Cl); 417 nm (in ClC=C(Cl)Cl). The compound also yielded an emission maximum (in ClCCl) of 432 nm.
For the setting “in ClCCl”, `O=Cc1ccc(C2=Cc3ccccc3P2(=O)c2ccccc2)cc1` (centres undefined) registered an emission maximum of 427 nm.
In turn, `O=S1c2ccccc2-c2cc(-c3c4ccccc4cc4ccccc34)ccc21` (centres undefined) gave an emission maximum (in C1CCCCC1) of 401.88 nm, an emission maximum (in CC#N) of 504.43 nm and an emission maximum (in ClCCl) of 444.61 nm.
In turn, `N#C/C(=C\c1ccc(C(F)(F)F)cc1)c1nc(-c2ccc(Cl)cc2)cs1` displayed an emission maximum (in CC#N) of 490 nm.
Compound `CCCCCCCCC1(CCCCCCCC)c2cc(-c3ccc(C=C4C(=O)c5ccccc5C4=O)cc3)ccc2-c2ccc(-c3ccc(C=C4C(=O)c5ccccc5C4=O)cc3)cc21` displayed an emission maximum (in C1CCOC1) of 531 nm; an emission maximum (in CC(C)=O) of 568 nm; an emission maximum (in CCCCCC) of 462 nm; an emission maximum (in CS(C)=O) of 596 nm; an emission maximum (in Cc1ccccc1) of 486 nm; an emission maximum (in ClC(Cl)Cl) of 530 nm.
`COc1ccc(C2=Cc3ccccc3[Si]2(c2ccccc2)c2ccccc2)cc1` returned an emission maximum (in ClCCl) of 418 nm.
As to `Oc1ccc2ccccc2c1`, the emission maximum came to 350.75 nm (in C1CCCCC1) and 351 nm (in O).
For the setting “in c1ccccc1”, `COc1ccc(-c2nc3ccccc3oc2=O)cc1` displayed an emission maximum of 444 nm.
Consider `Cc1ccc(C2=C3C=C(I)C=[N+]3[B-](F)(F)n3cc(I)cc32)cc1`, for which the emission maximum by setting is: (in C1CCCCC1) 567.5 nm; (in CC#N) 573 nm; (in CCO) 573 nm; (in CCOC(C)=O) 569.5 nm; (in CO) 572 nm; (in OCC(F)(F)F) 567.5 nm.
`COc1ccc(-n2c(C)ccc2C)cc1`: the emission maximum turned out to be 421 nm (in CC#N) and 336 nm (in CCCCCC).
`NS(=O)(=O)c1ccc(N2N=C(c3ccc(O)cc3)CC2c2ccc(F)cc2)cc1` (centres undefined) gave an emission maximum (in C1CCOC1) of 417 nm; an emission maximum (in C1COCCO1) of 417 nm; an emission maximum (in CC#N) of 417 nm; an emission maximum (in CC(C)O) of 423 nm; an emission maximum (in CCO) of 427 nm; an emission maximum (in CCOC(C)=O) of 416 nm. In addition, the emission maximum reads like this: (in CN(C)C=O) 421 nm; (in CO) 430 nm; (in CS(C)=O) 424 nm; (in O) 448 nm.
Take `Cc1ccc(-c2nc(-c3cccc(O)c3)[nH]c2-c2ccc(C)cc2)cc1`: the emission maximum (in CO) stood at 399 nm.
Turning to `CCN1C(=O)C(C2C(=O)c3c4ccccc4cc4cc5ccccc5c2c34)SC1=S` (centres undefined), the emission maximum by setting is: (in C1CCOC1) 570 nm; (in CC#N) 593 nm; (in CCCCCC) 539 nm; (in Cc1ccccc1) 563 nm; (in ClCCl) 582 nm.
As to `Cc1cc(C(F)(F)F)nc2c1ccc1nc(-c3ccc(F)c(F)c3)cn12`, the emission maximum (in CC#N) is 460 nm; the emission maximum (in CCCCCC) is recorded as 433 nm; the emission maximum (in CCCCOC(C)=O) was found to be 453 nm; the emission maximum (in CCOC(C)=O) is reported as 454 nm; the emission maximum (in CO) came out at 456 nm; the emission maximum (in Cc1ccccc1) came to 451 nm. The emission maximum is, setting by setting: (in ClC(Cl)Cl) 448 nm; (in ClCCl) 451 nm; (in c1ccccc1) 450 nm.
For `N#Cc1c(N2CCCCC2)cc(-c2ccc3ccccc3c2)c2c1-c1ccccc1C2=O`, the emission maximum (in C1CCOC1) is 527 nm.
`c1ccc2c(c1)OB1Oc3ccccc3-c3c1c-2c1c2c3-c3ccccc3OB2Oc2ccccc2-1` had an emission maximum (in ClCCl) of 430 nm.
Compound `CCOC(=O)c1sc(-c2ccc(-c3cc(C4CC4)c(C(=O)OCC)s3)s2)cc1C1CC1` registered an emission maximum (in ClCCl) of 448 nm.
`COc1ccc2c3ccc(OC)cc3n(-c3cc(Cl)c([C](c4c(Cl)cc(Cl)cc4Cl)c4c(Cl)cc(Cl)cc4Cl)c(Cl)c3)c2c1` had an emission maximum (in C1CCCCC1) of 638 nm.
For the compound `O=P1(c2ccccc2)C(c2ccccc2)=Cc2ccccc21` (centres undefined), the emission maximum is 417 nm (in C1CCOC1) and 423 nm (in ClCCl).
As for `Cc1ccc2[nH]c(-c3ccc(-c4ccc(-c5ccc(-c6nc7cc(C)ccc7[nH]6)cc5)c(C)c4)cc3)nc2c1`, the emission maximum (in CN(C)C=O) amounted to 408 nm.
Take `C(/C=C/c1ccc(-n2c3ccccc3c3ccccc32)cc1)=C\c1ccncc1`: the emission maximum by setting is: (in C1COCCO1) 436 nm; (in CC#N) 492 nm; (in CCCCCCC) 382 nm; (in CO) 496 nm.
Compound `c1ccc(N(c2ccccc2)c2cc3c4c(c2)N(c2ccccc2)c2cc5c(cc2B4c2ccccc2N3c2ccccc2)B2c3ccccc3N(c3ccccc3)c3cc(N(c4ccccc4)c4ccccc4)cc(c32)N5c2ccccc2)cc1` registered an emission maximum (in Cc1ccccc1) of 468 nm and an emission maximum (in Cc1ccccc1-c1cccc(Oc2cc3c4c(c2)Oc2cc(-c5ccccc5C)ccc2B4c2ccc(-c4ccccc4C)cc2O3)c1) of 473 nm.
On to `O=C(/C=C/c1cn(-c2ccccc2)nc1-c1ccccc1)c1c(O)c2ccccc2oc1=O`, for which the emission maximum is 489 nm (in C1CCOC1); 482 nm (in C1COCCO1); 507 nm (in CCO); 487 nm (in CCOC(C)=O); 505 nm (in CN(C)C=O); 504 nm (in CO). In addition, the emission maximum by setting is: (in CS(C)=O) 510 nm; (in Cc1ccccc1) 480 nm; (in ClC(Cl)Cl) 493 nm; (in ClCCl) 502 nm.
As for `C1=[N+](c2ccccc2)[B-](c2ccccc2)(c2ccccc2)Oc2c1ccc1c3c(ccc21)C=[N+](c1ccccc1)[B-](c1ccccc1)(c1ccccc1)O3`, the emission maximum was 602 nm (in Cc1ccccc1) and 594 nm (in ClCCl).
Consider `CCCCCCCCOc1ccc(C#Cc2ccc(C#Cc3ccc(OCCCCCCCC)c(OCCCCCCCC)c3)c3nc4c5ccccc5c5ccccc5c4nc23)cc1OCCCCCCCC`, for which the emission maximum (in C1CCOC1) is 558 nm, the emission maximum (in Cc1ccccc1) was determined as 541 nm and the emission maximum (in ClCCl) came out at 566 nm.
Consider `O=C(c1ccncc1)c1ccc(-n2c3ccccc3c3cc(-n4c5ccccc5c5ccccc54)ccc32)cc1`, for which the emission maximum runs as follows: (in Cc1ccccc1) 480 nm; (in c1cc(-c2cccc(-n3c4ccccc4c4ccccc43)c2)cc(-n2c3ccccc3c3ccccc32)c1) 475.23 nm.
Regarding `CCCC1(CCC)c2cc(-c3ccc4c(c3)C(CCC)(CCC)c3cc(C(C)(C)CC)ccc3-4)ccc2-c2ccc(-c3ccc4c(c3)C(CCC)(CCC)c3cc(C(C)(C)CC)ccc3-4)cc21`, where the note is “in C1CCCCC1”, the emission maximum was determined as 400 nm.
For `CC(C)c1cc(C(C)C)c(B2c3ccccc3Oc3cc(N4c5ccccc5C5(c6ccccc6-c6ccccc65)c5ccccc54)ccc32)c(C(C)C)c1`, the emission maximum (in Cc1ccccc1) is recorded as 456 nm.
Turning to `COC(=O)c1ccc(/C=C2\C=C(c3ccc(OC)c(OC)c3)OC2=O)cc1`, for the setting “in C1COCCO1”, the emission maximum was determined as 522 nm.
The compound `CC1(C)c2ccccc2N(c2ccc3c(c2)Oc2ccccc2P3(=O)c2ccccc2)c2ccccc21` (centres undefined) displayed an emission maximum (in Cc1ccccc1) of 433 nm and an emission maximum (in O=P(c1ccccc1)(c1ccccc1)c1ccccc1Oc1ccccc1P(=O)(c1ccccc1)c1ccccc1) of 434 nm.
As to `CN(C)c1ccc(C(=O)c2ccccc2)cc1`, the emission maximum stood at 462 nm (in C1CCCCC1); 602 nm (in CC#N); 480 nm (in CO); 609 nm (in CS(C)=O); 497 nm (in c1ccccc1).
As for `O=C(O)c1cc(O)c(O)c(O)c1`, the emission maximum (in O) came to 341 nm.
Compound `C(=C\c1cccc(/C=C/c2c3ccccc3cc3ccccc23)c1)/c1ccncc1` registered an emission maximum (in C1CCOC1) of 475 nm.
Regarding `CC1CC=C(c2ccc(-c3ccc(C=O)s3)s2)CC1` (centres undefined), the emission maximum worked out at 467 nm (in C1CCOC1); 482 nm (in CC#N); 445 nm (in CCCCCC); 500 nm (in CCO); 508 nm (in OCCOCCO); 483 nm (in c1ccncc1).
Regarding `Cc1ccc(C2CC(=O)Oc3c2c2nc4ccc(C)cc4nc2c2ccccc32)cc1` (centres undefined), the emission maximum (in ClC(Cl)Cl) is listed as 442 nm.
For `CCc1c(C)[nH]c(C2=[N+]3C(=Cc4c(C)cc(C)n4[B-]3(F)F)c3ccccc32)c1C`, the emission maximum reads like this: (in C1CCOC1) 635 nm; (in CC#N) 632 nm; (in CCCCCC) 630 nm; (in CO) 631 nm; (in Cc1ccccc1) 642 nm; (in ClCCl) 640 nm.
`COc1ccc(-c2oc3cccc4c5c(-c6ccc(OC)cc6)c(=N)oc6cccc(c2c34)c65)cc1` displayed an emission maximum (in ClC(Cl)Cl) of 505 nm.
`Cc1cccc2nc(-c3cc(=O)c(OCc4ccccc4)co3)c(NC3CCCCC3)n12` displayed an emission maximum (in ClCCl) of 476 nm.
On to `CCC1=C(C)C2=Cc3c4ccccc4c4n3[B-](c3ccncc3)(Oc3ccccc3-4)[N+]2=C1C=Cc1ccc(OC)cc1` (centres undefined), for which the emission maximum (in CC#N) was determined as 712 nm, the emission maximum (in CCCCCC) was determined as 711 nm, the emission maximum (in Cc1ccccc1) is recorded as 720 nm and the emission maximum (in ClCCl) is 717 nm.
`Fc1cc(-c2ccc(-c3nc4ccccc4[nH]3)cc2)ccc1-c1ccc(-c2nc3ccccc3[nH]2)cc1` yielded an emission maximum (in CN(C)C=O) of 414 nm.

For the origin of these results see the Deep4Chem optical property database.
